Columns and labels:
[1] = molecular target: T1, human growth hormone secretagogue receptor type 1a (hGHSR1A) (Homo sapiens, UniProt Q92847); experiment: Aequorin luminescence in hGHSR1A cells (WALLAC MICROBETA JET); format: cell-based; settings: 30 μM BAPTA-AM, 100 nM ghrelin
T1 construct: expressed in transfected cells
Protocol: Cells were charged with the aequorin substrate, coelenterazine h (MOLECULAR PROBES, #C-6780), by removing the growth media and incubating the cells with 75 μl of charge buffer (DMEM GIBCOBRL#12320-032; 0.1% FBS GEMINI BIO-PRODUCTS, Inc. #100-107; 5 μM coelenterazine h; 30 μM reduced glutathione) for 2 hours at 37° C., 10% CO^2. […] The cells were then washed and loaded with 100 μl of enriched-PBS with or without the indicated antagonist. […] In order to obtain more consistent kinetics, the Jet was set to simultaneously read only six wells per determination.

[2] = system: ligand-gated calcium channel; experiment: Model aequorin-based functional cellular assay for a ligand-gated calcium channel; format: cell-based; settings: BAPTA-AM 0-30 uM, after injection of agonist
Protocol: For this assay, HEK293 cells co-expressing the receptor of interest and apoaequorin were grown to confluence in BIOCOAT poly-D-lysine opaque white 96-well microtiter plates (BECTON DICKINSON). The cells were maintained on a standard growth media. The cells were charged with growth media supplemented with 5 uM of coelenterazine h (MOLECULAR PROBES, Eugene, Oreg.) for 2 hr at 37° C. in a humidified incubator at 5% CO2. The charged cells were then washed and loaded with assay buffer.
Addition of agonist caused the rapid and transient luminescent signal that was complete within 10-15 seconds (FIG. 1). The kinetics of the flash luminescent signal was followed by using a WALLAC MICROBETA JET instrument where agonist was injected directly into the wells containing the charged cells. As a buffering reagent the cell permeable acetoxymethyl ester BAPTA-AM was used. BAPTA is a specific calcium chelator that rapidly binds and releases calcium. […] A schematic representation of this assay appears in FIG. 2.
The addition of increasing levels of BAPTA-AM (0-30 uM) caused an initial delay in the aequorin-based luminescence signal upon injection of agonist and extended the signal far greater than 30 seconds (FIG. 1). The addition of a known receptor antagonist was able to completely block the signal (FIG. 3).

[3] = molecular target: T2, rat VR1 capsaicin receptor (Rattus norvegicus, UniProt O35433); experiment: Aequorin luminescence in VR1 cells (WALLAC MICROBETA JET); format: cell-based; settings: for time to peak response: 0.5 μM capsaicin
T2 construct: expressed in transfected cells
Protocol: (§1) Parental HEK293 cell lines expressing apoaequorin (293AEQ17 cells) were used to develop stable clonal cell lines expressing the rat VR1 capsaicin receptor. The VR1 293AEQ17 were maintained on growth media containing DMEM (GIBCOBRL, high glucose, with L-glutamine, with 110 mg/L sodium pyruvate, with pyridoxine HCl), 25 mM HEPES (GIBCOBRL, 1M stock), 0.5 mg/mL geneticin (GIBCOBRL, 50 mg/mL stock), 1 μg/mL puromycin (CLONTECH), and 10% fetal bovine serum (GEMINI BIO-PRODUCTS, heat inactivated) at 37° C., 10% CO^2.
Cells were grown to 80-95% confluence in tissue culture flasks (T-225, Corning) and harvested by trypsinization (Trypsin/EDTA, GIBCOBRL). Cells were dispensed (about 1×10^5 cells/0.2 ml/well) into 96-well white clear-bottom BIOCOAT poly-D-lysine plates (BECTON DICKENSON, Bedford, Mass.) in growth media and incubated overnight at 37° C. in a humidified incubator at 10% CO^2. Cells were charged with the aequorin substrate, coelenterazine h (MOLECULAR PROBES, #C-6780), by removing the growth media and incubating the cells with 75 μl of charge buffer (DMEM GIBCOBRL #12320-032; 0.1% FBS GEMINI BIO-PRODUCTS, Inc. #100-107;5 μM coelenterazine h; 30 μM reduced glutathione) for 2 hours at 37° C., 10% CO^2. The charge buffer was then removed and the cells were washed twice with 100 μl of enriched-PBS (pH 7.2) and then incubated with 100 μl of enriched-PBS supplemented with 0-30 μM BAPTA-AM for 30-120 min at 37° C., 10% CO^2. The cells were then washed and loaded with […] of enriched-PBS with or without the indicated antagonist. The calcium response was initiated by addition of 100 μl of the indicated concentration of capsaicin (SIGMA #M2028) to the wells by a WALLAC MICROBETA JET. In order to obtain more consistent kinetics, the Jet was set to simultaneously read only six wells per determination.
For these experiments, the kinetics of the flash luminescence were followed using a WALLAC MICROBETA JET luminometer that injects reagent and records light emission from six wells of a 96-well plate simultaneously.

[4] = molecular target: T1, human growth hormone secretagogue receptor type 1a (hGHSR1A); experiment: Fluo-4 fluorescence calcium response in hGHSR1a cells (VIPR); format: cell-based; settings: 30 μM BAPTA-AM, 100 nM ghrelin
Protocol: Cells were grown to 80-95% confluence in tissue culture flasks (T-225, Corning) and harvested by trypsinization (Trypsin/EDTA, GIBCOBRL). Cells were dispensed (about 1×10^5 cells/0.2 ml/well) into 96-well black clear-bottom BIOCOAT poly-D-lysine plates (BECTON DICKENSON, Bedford, Mass.) in growth media and incubated overnight at 37° C. in a humidified incubator at 10% CO^2. […] Wells were washed two times with 100 μl of enriched-PBS, and then 100 μl enriched-PBS with or without antagonist was added for 15-30 minutes prior to assay on the AURORA fluorescence plate reader VIPR (ex. 480 nm, em. 535 nm). […] The VIPR instrument was used to add agonist (in 100 μl enriched-PBS) after recording a 10 sec. baseline and the fluorescence was measured for up to 300 sec.

[5] = system: ionomycin-induced calcium influx; settings: presence of BAPTA-AM; cited from earlier work
[6] = molecular target: T2, rat VR1 capsaicin receptor; experiment: Fluo-3 fluorescence calcium response in VR1 cells (VIPR); format: cell-based
Protocol: as §1, with “receptor (Caterina, M. J., Schumacher, M. A., Tominaga, M., Rosen, T. A., Levine, J. D., and Julius, D. (1997) The capsaicin receptor: a heat-activated ion channel in the pain pathway. Nature 389, 816-824).” for “receptor.”
Cells were grown to 80-95% confluence in tissue culture flasks (T-225, CORNING) and harvested by trypsinization (Trypsin/EDTA, GIBCOBRL). Cells were dispensed (about 1×10^5 cells/0.2 ml/well) into 96-well black clear-bottom BIOCOAT poly-D-lysine plates (BECTON DICKENSON, Bedford, Mass.) in growth media and incubated overnight at 37° C. in a humidified incubator at 10% CO^2. Cells were washed once with 200 μls of enriched PBS (Dulbecco's PBS (GIBCOBRL #14040-117), 10 mM HEPES, 2 g/L glucose; pH 7.2) and then incubated with 100 μl of 5 μM fluo-3-AM (MOLECULAR PROBES #F1241) with or without of 1,2-bis(o-aminophenoxy)ethane-N,N,N′,N′-tetraacetic acid tetra(acetoxymethyl) ester (BAPTA-AM, MOLECULAR PROBES #B 1205) in enriched PBS containing 0.02% pluronic F-127 (MOLECULAR PROBES #P-3000) for 30-70 minutes. Wells were washed two times with 100 μl of enriched-PBS, and then 100 μl enriched-PBS with or without antagonist was added for 15-30 minutes prior to assay on the AURORA fluorescence plate reader VIPR (ex. 480 nm, em. 535 nm). […] The calcium response was initiated by addition of 100 μl of the indicated concentration of capsaicin (SIGMA #M2028). The VIPR instrument was used to add agonist (in 100 μl enriched-PBS) after recording a 10 sec. baseline and the fluorescence was measured for up to 300 sec.
Changes in intracellular calcium were measured using the fluo-3 dye and detecting the kinetics of the response after addition of the VR1 agonist, capsaicin (0.5 uM) to cells expressing VR1 using a VIPR fluorescence plate reader (FIGS. 5 & 6A).

[7] = molecular target: T3, endogenous muscarinic receptor (Homo sapiens, UniProt P20309); experiment: Fluo-4 fluorescence calcium response in HEK-AEQ17 cells (VIPR); format: cell-based; settings: 3 μM BAPTA-AM, muscimol (10 μM)
T3 construct: stimulated an endogenous muscarinic receptor; endogenous in cells; host or cells: parental HEK293 apoaequorin cells (293AEQ17 / HEK-AEQ17)
Protocol: The VIPR instrument was used to add agonist (in 100 μl enriched-PBS) after recording a 10 sec. baseline and the fluorescence was measured for up to 300 sec.
Muscimol stimulated an endogenous muscarinic receptor (Moriya, H., Takagi, Y., Nakanishi, T., Hayashi, M., Tani, T., and Hirotsu, I. (1999) Affinity profiles of various muscarinic antagonists for cloned human muscarinic acetylcholine receptor (MACHR) subtypes and MACHRS in rat heart and submandibular gland. Life Sciences 25 2351-2358; Caulfield, M. P. (1993) Muscarinic receptors-characterization, coupling and function. Pharmac. Ther. 58, 319-379)in HEK-AEQ17 cells which gave a robust fluorescence signal when measured with fluo-4 using the VIPR. The kinetics of this calcium transient was different from that measured for either the VR1 or hGHSR1a calcium transient. Activation with muscimol (10 μM) caused a fast transient response, followed by a slower response (FIG. 9A). The fast transient response was very sensitive to BAPTA, and was eliminated by low levels of the chelator (3 μM BAPTA-AM), but a fluorescence signal could be detected under these conditions that was stable for at least 3 minutes. At a higher BAPTA concentration (10 μM BAPTA-AM), the increase in fluorescence was very slow and had not yet stabilized even after 3 minutes.

[8] = molecular target: T2, rat VR1 capsaicin receptor; experiment: Manual luminescence measurement in VR1 cells, read 2 minutes after agonist; format: cell-based
Protocol: Parental HEK293 cell lines expressing apoaequorin (293AEQ17 cells) were used to develop stable clonal cell lines expressing the rat VR1 capsaicin receptor.
Cells were grown to 80-95% confluence in tissue culture flasks (T-225, Corning) and harvested by trypsinization (Trypsin/EDTA, GIBCOBRL). Cells were dispensed (about 1×10^5 cells/0.2 ml/well) into 96-well white clear-bottom BIOCOAT poly-D-lysine plates (BECTON DICKENSON, Bedford, Mass.) in growth media and incubated overnight at 37° C. in a humidified incubator at 10% CO^2.

[9] = molecular target: T1, human growth hormone secretagogue receptor type 1a (hGHSR1A); experiment: Manual luminescence measurement in hGHSR1a cells, read 2 minutes after agonist; format: cell-based; settings: 2 minutes after 100 nM ghrelin, with BAPTA
Protocol: Parental HEK293 cell lines expressing apoaequorin (293AEQ17 cells) were used to develop stable clonal cell lines expressing the human growth hormone secretagogue receptor type 1a (hGHSR1A).
Cells were charged with the aequorin substrate, coelenterazine h (MOLECULAR PROBES, #C-6780), by removing the growth media and incubating the cells with 75 μl of charge buffer (DMEM GIBCOBRL #12320-032; 0.1% FBS GEMINI BIO-PRODUCTS, Inc. #100-107;5 μM coelenterazine h; 30 μM reduced glutathione) for 2 hours at 37° C., 10% CO^2. […] The cells were then washed and loaded with 100 μl of enriched-PBS with or without the indicated antagonist. […] The WALLAC MICROBETA JET was used to measure 10 sec of luminescence after a delay of 2 minutes.
J. Med Chem. 43 4370-4376). […] After a lapse of two minutes, the plates were read using the WALLAC MICROBETA JET luminometer. […] These complex dose-response curves were observed both in the presence and absence of BAPTA. Yet overall, the addition of BAPTA increased the luminescence such that a 6-fold signal over background could be measured 2 minutes after stimulation with agonist.

[10] = 0.5 uM capsaicin, absence of BAPTA

T1 sequence (Q92847 whole entry): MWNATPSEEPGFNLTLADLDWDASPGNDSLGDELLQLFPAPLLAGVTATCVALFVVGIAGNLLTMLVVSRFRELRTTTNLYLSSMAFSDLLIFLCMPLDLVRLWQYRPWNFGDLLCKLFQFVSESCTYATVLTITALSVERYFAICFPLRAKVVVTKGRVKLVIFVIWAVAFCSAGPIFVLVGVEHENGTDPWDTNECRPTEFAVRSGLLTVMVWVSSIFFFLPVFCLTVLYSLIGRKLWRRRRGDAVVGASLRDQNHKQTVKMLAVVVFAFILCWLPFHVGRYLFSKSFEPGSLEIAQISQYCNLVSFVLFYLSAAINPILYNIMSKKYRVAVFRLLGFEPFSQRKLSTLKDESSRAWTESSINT
T2 sequence (O35433 whole entry): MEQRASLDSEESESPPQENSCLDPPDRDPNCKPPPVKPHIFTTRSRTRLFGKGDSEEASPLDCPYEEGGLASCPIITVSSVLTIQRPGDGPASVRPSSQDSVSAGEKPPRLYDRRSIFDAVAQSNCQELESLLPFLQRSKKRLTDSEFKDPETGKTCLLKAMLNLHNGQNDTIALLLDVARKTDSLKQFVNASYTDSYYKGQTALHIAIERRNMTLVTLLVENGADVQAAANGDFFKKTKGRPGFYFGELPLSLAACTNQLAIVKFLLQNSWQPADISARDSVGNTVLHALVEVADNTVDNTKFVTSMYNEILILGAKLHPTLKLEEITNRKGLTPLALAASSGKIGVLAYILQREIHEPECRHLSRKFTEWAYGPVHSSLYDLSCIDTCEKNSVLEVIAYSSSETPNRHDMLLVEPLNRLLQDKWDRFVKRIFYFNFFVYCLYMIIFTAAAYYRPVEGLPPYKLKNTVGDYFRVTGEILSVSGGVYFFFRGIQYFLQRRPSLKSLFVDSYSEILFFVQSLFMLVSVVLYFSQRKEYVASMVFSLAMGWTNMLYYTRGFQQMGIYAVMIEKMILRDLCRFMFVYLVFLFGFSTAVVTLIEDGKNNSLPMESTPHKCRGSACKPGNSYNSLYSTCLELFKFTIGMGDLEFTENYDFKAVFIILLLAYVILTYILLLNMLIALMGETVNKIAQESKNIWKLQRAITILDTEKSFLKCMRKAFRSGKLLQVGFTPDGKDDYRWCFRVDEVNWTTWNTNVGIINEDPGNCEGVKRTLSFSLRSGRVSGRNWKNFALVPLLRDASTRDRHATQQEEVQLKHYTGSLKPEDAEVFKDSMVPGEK
T3 sequence (P20309 whole entry): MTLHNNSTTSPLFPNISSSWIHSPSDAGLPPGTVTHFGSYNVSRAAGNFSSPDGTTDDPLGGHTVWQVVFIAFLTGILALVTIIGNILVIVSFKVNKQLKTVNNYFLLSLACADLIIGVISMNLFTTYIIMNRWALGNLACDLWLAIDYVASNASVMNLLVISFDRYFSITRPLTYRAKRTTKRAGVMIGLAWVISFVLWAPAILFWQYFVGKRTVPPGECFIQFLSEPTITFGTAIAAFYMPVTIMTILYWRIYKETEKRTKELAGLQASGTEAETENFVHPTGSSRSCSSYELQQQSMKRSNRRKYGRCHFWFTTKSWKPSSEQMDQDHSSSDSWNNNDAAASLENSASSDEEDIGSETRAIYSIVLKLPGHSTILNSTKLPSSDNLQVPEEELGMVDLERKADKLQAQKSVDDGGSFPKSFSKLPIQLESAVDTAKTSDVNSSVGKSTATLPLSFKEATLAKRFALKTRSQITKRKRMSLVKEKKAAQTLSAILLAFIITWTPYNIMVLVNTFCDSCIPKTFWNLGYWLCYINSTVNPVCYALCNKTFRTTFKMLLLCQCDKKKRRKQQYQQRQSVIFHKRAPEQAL

CC(=O)OCOC(=O)CN(CC(=O)OCOC(C)=O)c1ccccc1OCCOc1ccccc1N(CC(=O)OCOC(C)=O)CC(=O)OCOC(C)=O [BAPTA-AM, 1,2-bis(o-aminophenoxy)ethane-N,N,N′,N′-tetraacetic acid tetra(acetoxymethyl)ester]
luminescence signal relative to the response in the absence of BAPTA [1]: about 5%
time to reach the maximum light emission [1]: 75 s
duration of extended luminescence signal [2]: greater than 30 seconds
total signal at a given agonist concentration ([3]; 0 μM to 30 μM BAPTA-AM): did not significantly vary
time to peak response ([3]; 30 μM BAPTA-AM): 10 s
duration of extended luminescence signal ([3]; BAPTA-AM 0-30 μM, 50 nM capsaicin, maximum time recorded): up to 3 minutes
time of maximum luminescence response ([3]; increasing BAPTA-AM 0-30 μM, 50 nM capsaicin): 30 s
duration of stable fluorescent signal [4]: up to 5 minutes
time to peak fluorescence response [4]: 150 s
slowing of calcium transients [5]: up to 8 fold
time to peak fluorescence signal ([6]; 3 μM BAPTA-AM for 30 minutes, 0.5 uM capsaicin): about 40 sec
fluo-3 signal decay time ([6]; 3 μM BAPTA-AM, 0.5 uM capsaicin): about 150 s
peak response time ([6]; 10 and 30 μM BAPTA-AM, 0.5 uM capsaicin): up to 100 sec
duration of stable fluorescence signal [7]: at least 3 minutes
effect on fast transient response [7]: eliminated

O=C(O)CN(CC(=O)O)c1ccccc1OCCOc1ccccc1N(CC(=O)O)CC(=O)O [BAPTA]
signal over background ([8]; 2 minutes after 0.5 uM capsaicin, with BAPTA): 4 fold
signal over background [9]: 6 fold
effect on peak signal ([6]; 3 μM BAPTA, 0.1 μM capsaicin): decreased the peak signal

COc1cc(CNC(=O)CCCC/C=C/C(C)C)ccc1O [capsaicin]
time for luminescence signal to be largely complete ([3]; 50 nM capsaicin, no BAPTA): ≤ 30 s
time to peak luminescence ([3]; 50 nM capsaicin, no BAPTA): about 10 sec
time to peak response ([3]; no BAPTA): about 5 sec
time to decay to 50% [6, 10]: about 150 sec
time to peak fluorescence response [6, 10]: about 20 sec

Oc1cc2c(cc1O)CN(C(=S)NCCc1ccc(Cl)cc1)CCC2 [capsazepine]
block of luminescence signal ([8]; higher concentrations of antagonist, 0.5 uM capsaicin, with and without BAPTA): completely blocked
block of capsaicin response ([6]; 20 μM capsazepine, 0.5 uM capsaicin): completely blocked

Reference: patent publication US6514709B1, “High throughput screening by measurement of intracellular calcium levels” (Merck & Co., Inc., priority 2000, dated 2003)
